According to ChEMBL document CHEMBL1201862, “PubChem BioAssay data set” (2004):
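Cells were grown in 96-well plates and exposed to each compound for 48 hours at five concentrations; endpoints were interpolated linearly between bracketing concentrations, or set to the highest concentration if not reached. Abbreviation: GI50, concentration required for 50% inhibition of growth.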 Active and inactive are the calls of the source. Cut-off read from the data, not from the text of the source: active = GI50 up to about 1.1 µM and inactive = higher.

Key:
Assay in all cases: inhibition of tumour cell growth, NCI panel, 48 h
DMS-273 = tested on: DMS-273
M19-MEL = tested on: M19-MEL
LXFL 529 = tested on: LXFL 529
SNB-78 = tested on: SNB-78
MDA-N = tested on: MDA-N
PC-3 = tested on: PC-3
MDA-MB-435 = tested on: MDA-MB-435
DU-145 = tested on: DU-145
RXF 631 = tested on: RXF 631

Measured: GI50

O=S(=O)(CCBr)CCBr
inactive: DMS-273 4.59 µM | M19-MEL 2.83 µM

O=C(O)CSc1nnc(/C=C/c2ccccc2)[nH]1
inactive: DMS-273 > 100 µM | LXFL 529 > 100 µM | SNB-78 > 100 µM | M19-MEL > 100 µM

CNC(=S)N/N=C(/C)CCC/C(C)=N/NC(=S)NC
inactive: MDA-N > 100 µM | PC-3 3.71 µM | MDA-MB-435 > 71.8 µM | DU-145 > 68.5 µM

CSc1nc(NC2OC(CO)C(O)C(O)C2O)c(N)c(=O)n1C (stereo not given)
inactive: DMS-273 > 100 µM | SNB-78 > 100 µM | M19-MEL > 100 µM

C=C1CC(OC)(C(OC)C(=O)N(C)[C@H]2OCO[C@H]3C2O[C@H](C[C@@H](COC)OC)C(C)(C)C3OC)O[C@H](C)[C@@H]1C (stereo not given in full)
inactive: DMS-273 6.9 µM | SNB-78 12.2 µM

CN(C)CCCNC(=O)c1c(-c2cccnc2)cnc2ccccc12
inactive: MDA-N > 100 µM | PC-3 > 100 µM | DU-145 > 100 µM

C[n+]1ccc(Nc2ccc(NC(=O)c3ccc(Nc4cc[n+](C)c5ccc([N+](=O)[O-])cc45)cc3[N+](=O)[O-])cc2)cc1
inactive: DMS-273 34.9 µM | M19-MEL 20 µM

NCCCn1c(Cl)nc2ccccc21
inactive: MDA-N > 100 µM | PC-3 > 100 µM | MDA-MB-435 > 100 µM | DU-145 > 100 µM

CCCCN(CCCC)C(=O)C(=O)C(C(=O)C(=O)OC)c1nc2ccccc2o1 (stereo not given)
inactive: DMS-273 > 100 µM | LXFL 529 > 100 µM | RXF 631 79.3 µM | SNB-78 > 100 µM | M19-MEL > 100 µM

CC(=O)N1C(=O)/C(=C\C(=O)c2ccc(Cl)cc2)c2ccccc21
inactive: MDA-N 14.4 µM | PC-3 11.4 µM | MDA-MB-435 14.1 µM | DU-145 17.1 µM

CCC1CN2CCc3cc(OC)c(OC)cc3C2CC1CC1c2cc(OC)c(OC)cc2CCN1C(=O)C(N)Cc1ccccc1.[O-][Cl+3]([O-])([O-])O (stereo not given)
inactive: DMS-273 1.98 µM | LXFL 529 1.67 µM | RXF 631 2.54 µM

CCOC(=O)c1csc(NC(=O)C(C)N2CCOCC2)n1 (stereo not given)
inactive: MDA-N > 100 µM | PC-3 > 100 µM | MDA-MB-435 > 100 µM | DU-145 > 100 µM

CO/N=C1/c2sccc2[C@H](NC(=O)C(Cc2ccccc2)NC(=O)OC(C)(C)C)[C@@H]1O (stereo not given in full)
inactive: MDA-N > 100 µM | PC-3 > 100 µM | MDA-MB-435 > 100 µM | DU-145 > 100 µM

N#CCCN(CCC#N)c1ccc(/C=C2\N=C(c3cc([N+](=O)[O-])ccc3Cl)N(S(=O)(=O)c3ccccc3)C2=O)cc1
inactive: DMS-273 > 100 µM | LXFL 529 > 100 µM | SNB-78 > 100 µM | M19-MEL > 100 µM

Cc1cc(C)c2c(c1)CC1(Cc3c(C)ccc(C)c3C1=O)C2=O (stereo not given)
inactive: MDA-N > 100 µM | PC-3 > 100 µM | MDA-MB-435 > 100 µM | DU-145 > 100 µM

COc1cc(O)c(Cc2ccccc2O)c(O)c1C(=O)CCc1ccccc1 [UVARETIN]
inactive: DMS-273 4.39 µM | SNB-78 7.64 µM | M19-MEL 6.07 µM

CC(C)(CO)NC(=O)c1cccc(C(=O)NC(C)(C)CO)c1Br
inactive: PC-3 > 100 µM | MDA-MB-435 > 100 µM | DU-145 > 100 µM

CC1(C)O[C@H]2OC(CO)C(OS(C)(=O)=O)[C@H]2O1 (stereo not given in full)
inactive: MDA-N > 100 µM | PC-3 > 100 µM | MDA-MB-435 > 100 µM | DU-145 > 100 µM

CC(=O)C(=O)NC1/C=C(C)\C=C/C(O)C/C=C(C)\C=C/C(O)CC2OC(=O)C1(C)C(=O)C2C (stereo not given)
inactive: DMS-273 > 100 µM | SNB-78 > 100 µM | M19-MEL > 100 µM
